Each block holds one molecule with its values, some of them ahead of it.
Assays:
[1] = target: Peptidyl-prolyl cis-trans isomerase FKBP1A (Homo sapiens, UniProt P62942); experiment: Binding affinity for FK506 binding protein 12 using [3H]-dihydro FK-506 radioligand was determined
Mus musculus [2] = experiment: Neurotoxic activity was determined by measuring compound-induced hypothermia in BALB/c mice, after administering intravenously in mouse.; type: functional; settings: iv
Mus musculus [3] = experiment: Immunosuppressive activity was determined by ex vivo murine-based model of immunosuppression, compound was administered intravenously in mouse.; type: functional; settings: iv
Mus musculus [4] = experiment: Immunosuppressive activity was determined by ex vivo murine-based model of immunosuppression, compound was administered perorally in mouse.; type: functional; settings: po
Rattus norvegicus [5] = experiment: Nephrotoxic potential was tested in spontaneously hypertensive rats by administering 0 mg/kg/day intraperitoneally for 5 days; type: functional; settings: route intraperitoneal
Rattus norvegicus [6] = experiment: Nephrotoxic potential was tested in spontaneously hypertensive rats by administering 10 mg/kg/day intraperitoneally for 5 days; type: functional; settings: route intraperitoneal
Rattus norvegicus [7] = experiment: Nephrotoxic potential was tested in spontaneously hypertensive rats by administering 20 mg/kg/day intraperitoneally for 5 days; type: functional; settings: route intraperitoneal
Rattus norvegicus [8] = experiment: Nephrotoxic potential was tested in spontaneously hypertensive rats by administering 40 mg/kg/day intraperitoneally for 5 days; type: functional; settings: route intraperitoneal
[9] = Therapeutic index was determined as mouse hypothermia ED50/murine ex vivo ED50; settings: read-out: Therapeutic index

Sequence of Peptidyl-prolyl cis-trans isomerase FKBP1A (P62942 whole entry): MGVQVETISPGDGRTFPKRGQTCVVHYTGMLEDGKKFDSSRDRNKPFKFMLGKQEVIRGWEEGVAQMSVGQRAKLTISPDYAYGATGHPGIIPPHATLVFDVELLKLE

Compound: C=CC[C@@H]1/C=C(\C)C[C@H](C)C[C@H](OC)[C@H]2O[C@@](O)(C(=O)C(=O)N3CCCC[C@H]3C(=O)O[C@H](/C(C)=C/[C@@H]3CC[C@@H](O)[C@H](OC)C3)[C@H](C)[C@@H](O)CC1=O)[C@H](C)C[C@@H]2OC [TACROLIMUS ANHYDROUS]
- ED50 (Mus musculus [2]): 3.5 mg/kg
- ED50 (Mus musculus [3]): 0.24 mg/kg
- ED50 (Mus musculus [4]): 2.6 mg/kg
- BUN (Rattus norvegicus [5]): 20 mg/dL
- BUN (Rattus norvegicus [6]): 22 mg/dL
- BUN (Rattus norvegicus [7]): 43 mg/dL
- BUN (Rattus norvegicus [8]): 76 mg/dL
- selectivity ratio [9]: 15

Compound: CC[C@@H]1/C=C(\C)C[C@H](C)C[C@H](OC)[C@H]2O[C@@](O)(C(=O)C(=O)N3CCCC[C@H]3C(=O)O[C@H](/C(C)=C/[C@@H]3CC[C@@H](OCc4nc(-c5ccccc5)c[nH]4)[C@H](OC)C3)[C@H](C)[C@@H](O)CC1=O)[C@H](C)C[C@@H]2OC
- EC50 [1]: 22 nM

Compound: CC[C@@H]1/C=C(\C)C[C@H](C)C[C@H](OC)[C@H]2O[C@@](O)(C(=O)C(=O)N3CCCC[C@H]3C(=O)O[C@H](/C(C)=C/[C@@H]3CC[C@@H](OCc4nccn4Cc4ccccc4)[C@H](OC)C3)[C@H](C)[C@@H](O)CC1=O)[C@H](C)C[C@@H]2OC
- EC50 [1]: 7.4 nM

The next lines start with the values.

- EC50 [1]: 30 nM
Compound: CC[C@@H]1/C=C(\C)C[C@H](C)C[C@H](OC)[C@H]2O[C@@](O)(C(=O)C(=O)N3CCCC[C@H]3C(=O)O[C@H](/C(C)=C/[C@@H]3CC[C@@H](OC/C=C/c4ccccc4)[C@H](OC)C3)[C@H](C)[C@@H](O)CC1=O)[C@H](C)C[C@@H]2OC

- EC50 [1]: 12 nM
Compound: CC[C@@H]1/C=C(\C)C[C@H](C)C[C@H](OC)[C@H]2O[C@@](O)(C(=O)C(=O)N3CCCC[C@H]3C(=O)O[C@H](/C(C)=C/[C@@H]3CC[C@@H](OCOCc4ccccc4)[C@H](OC)C3)[C@H](C)[C@@H](O)CC1=O)[C@H](C)C[C@@H]2OC

From ChEMBL document CHEMBL1131393, “C32-O-imidazol-2-yl-methyl ether derivatives of the immunosuppressant ascomycin with improved therapeutic potential” (Bioorg Med Chem Lett, 1998)
